The values that follow come from paper PMC8930249, “Elucidating the Novel Mechanism of Ligustrazine in Preventing Postoperative Peritoneal Adhesion Formation” (Oxidative Medicine and Cellular Longevity, 2022).

The assay has as its target T1, PPARγ (Homo sapiens, UniProt P37231).
T1 construct: gene PPARG; recombinant His-tagged PPARγ (pET10), wild type
T1 sequence (P37231 1-505): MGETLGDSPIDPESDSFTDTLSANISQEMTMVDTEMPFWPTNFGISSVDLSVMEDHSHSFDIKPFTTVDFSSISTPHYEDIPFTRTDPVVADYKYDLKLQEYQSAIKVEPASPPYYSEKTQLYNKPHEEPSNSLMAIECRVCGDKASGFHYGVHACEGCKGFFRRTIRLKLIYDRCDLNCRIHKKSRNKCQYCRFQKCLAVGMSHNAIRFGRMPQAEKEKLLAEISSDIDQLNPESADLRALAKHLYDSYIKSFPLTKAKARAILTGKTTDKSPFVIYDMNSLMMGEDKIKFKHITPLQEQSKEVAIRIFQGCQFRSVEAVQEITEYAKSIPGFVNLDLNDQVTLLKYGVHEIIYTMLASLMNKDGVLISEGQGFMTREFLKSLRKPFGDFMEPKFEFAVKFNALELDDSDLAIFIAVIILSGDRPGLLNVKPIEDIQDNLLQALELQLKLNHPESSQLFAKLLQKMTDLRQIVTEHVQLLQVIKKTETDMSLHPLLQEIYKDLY
Nature of the assay: biolayer interferometry (Octet RED […]), Ni-NTA immobilised His-tagged protein. It is filed as binding.

`Cc1nc(C)c(C)nc1C` [Ligustrazine] came in with a Kd of 39.4 µM.
